Read-outs that look alike come from different tables or passages of the source. Positions of bridges follow the written chain, without caps; N, C: chain ends. Non-standard residues stand in square brackets, D forms with d. Residues, ends and D or L forms follow the SMILES beside them. *: point of attachment. Pro(cis-4-Ph) = O=C(O)[C@@H]1C[C@H](c2ccccc2)CN1; Ala(4-thiazolyl) = N[C@@H](Cc1cscn1)C(=O)O; Bip = N[C@@H](Cc1ccc(-c2ccccc2)cc1)C(=O)O; 1Nal = N[C@@H](Cc1cccc2ccccc12)C(=O)O; Cyclopentanecarbonyl = O=C(C1CCCC1)*; Cyclobutanecarbonyl = O=C(C1CCC1)*; hPhe = N[C@@H](CCc1ccccc1)C(=O)O; NMeNle = CCCC[C@H](NC)C(=O)O; NMeA = CN[C@@H](C)C(=O)O; Dap = NC[C@H](N)C(=O)O; Sar = CNCC(=O)O
What was measured:
Human PD-L1/PD-1 = target: T1, Human PD-L1/PD-1 (Homo sapiens, UniProt Q9NZQ7); test: HTRF PD-1-Ig/PD-L1-His binding assay (human PD-L1)
T1 construct: made in house; host or cells: HEK293T
T1 sequence (Q9NZQ7 with tags, fused parts or gaps): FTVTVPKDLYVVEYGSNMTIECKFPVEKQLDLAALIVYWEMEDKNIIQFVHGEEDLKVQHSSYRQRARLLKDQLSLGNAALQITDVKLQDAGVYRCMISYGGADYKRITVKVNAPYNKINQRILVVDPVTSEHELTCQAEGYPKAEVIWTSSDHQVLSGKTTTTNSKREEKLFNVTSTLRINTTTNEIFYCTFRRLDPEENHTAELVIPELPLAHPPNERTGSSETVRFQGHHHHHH
In short: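 The time-resolved fluorescence signal comes from Eu-cryptate anti-Ig (1 nM) and APC anti-His (20 nM) antibodies bound to a PD-1-Ig/PD-L1-His complex. Both partners lack transmembrane regions.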

[1] = target: T2, LK35.2-hPD-L1 cells / PE-labeled PD-1-Ig (Homo sapiens, UniProt Q9NZQ7); test: LK35.2-hPD-L1 cell binding high-content screening assay; format: cell-based
T2 construct: expressed in transfected cells; host or cells: LK35.2 mouse B cell line
T2 sequence (Q9NZQ7 19-290): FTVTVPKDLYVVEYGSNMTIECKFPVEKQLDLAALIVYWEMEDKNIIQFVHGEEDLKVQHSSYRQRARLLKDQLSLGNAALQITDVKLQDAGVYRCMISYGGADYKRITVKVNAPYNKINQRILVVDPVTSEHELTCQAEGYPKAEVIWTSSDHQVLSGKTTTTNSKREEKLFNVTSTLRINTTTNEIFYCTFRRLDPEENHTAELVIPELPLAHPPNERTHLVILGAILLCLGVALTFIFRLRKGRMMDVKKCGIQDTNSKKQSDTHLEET
Description: LK35.2-hPD-L1 Cell Binding High-Content Screening Assay. Phycoerythrin (PE) was covalently linked to the Ig epitope tag of human PD-1-Ig and fluorescently-labeled PD-1-Ig was used for binding studies with a mouse B cell line (LK35.2) stably over-expressing human PD-L1 (LK35.2-hPD-L1). Briefly, 3×10^3 LK35.2-hPD-L1 cells were seeded into 384 well plates in 20 ul of RPMI supplemented with 10% fetal calf serum and cultured overnight. 125 nl of compound was added to cells, followed by 5 ul of PE-labeled PD-1-Ig (1 nM final), diluted in RPMI supplemented with 10% fetal calf serum, followed by incubation at 37° C. for 1 h. […] Cells were washed 3× in 100 ul of dPBS followed by final addition of 15 ul of dPBS. Data was collected and processed using a Cell Insight NXT High Content Imager and associated software.

[2] = cluster symbol, read-out: HTRF IC50 cluster
[3] = cell binding assay, cell line not given, cluster symbol, read-out: CBA IC50 cluster
[4] = cluster symbol, cell line of CBA not given (LK35.2-hPD-L1 or 293T-hPD-L1), read-out: CBA IC50 cluster

SMILES | IC50 (Human PD-L1/PD-1; [2]) [nM] | IC50 [1, 4] [nM] | also measured
CCCC[C@H]1C(=O)N(C)CC(=O)N[C@@H](CC(=O)O)C(=O)N[C@@H](C(C)C)C(=O)N(C)[C@@H](Cc2ccccc2)C(=O)N[C@@H](Cc2ccc(O)cc2)C(=O)N(C)CC(=O)N[C@@H](Cc2c[nH]c3ccccc23)C(=O)N[C@@H](Cc2ccc(O)cc2)C(=O)N[C@@H](CC(C)C)C(=O)N[C@H](C(=O)NCC(N)=O)CSCC(=O)N[C@@H](Cc2ccccc2)C(=O)N(C)[C@@H](Cc2cccc3ccccc23)C(=O)N1C (single isomer, unassigned) [Example 3585-B] | 6.76 to 30.3 | – | IC50 [1, 3]: 4.78 to 72.9 nM
CCCC[C@H]1C(=O)N(C)[C@@H](CCCC)C(=O)N[C@@H](CCCNC(=N)N)C(=O)N[C@@H](C(=O)NCC(N)=O)CSCC(=O)N[C@@H](Cc2ccccc2)C(=O)N(C)[C@@H](C)C(=O)N[C@@H](CC(N)=O)C(=O)N2CCC[C@H]2C(=O)N[C@@H](Cc2cnc[nH]2)C(=O)N[C@@H](CC(C)C)C(=O)N(C)CC(=O)N[C@@H](Cc2c[nH]c3ccccc23)C(=O)N[C@@H](CO)C(=O)N[C@@H](Cc2cccc3ccccc23)C(=O)N1C [Example 1002] ({CH2CO}-F[NMeA]NPHL[Sar]WS[1Nal][NMeNle][NMeNle]R[dC]G-NH2; thioether N-14) | 6.76 to 30.3 | 4.78 to 72.9 | –
CCCC[C@H]1C(=O)N(C)[C@@H](Cc2ccccc2)C(=O)N[C@@H](CCCNC(=N)N)C(=O)N[C@H](C(=O)NCC(N)=O)CSCC(=O)N[C@@H](Cc2ccccc2)C(=O)N(C)[C@@H](C)C(=O)N[C@@H](CC(N)=O)C(=O)N2CCC[C@H]2C(=O)N[C@@H](Cc2cnc[nH]2)C(=O)N[C@@H](CC(C)C)C(=O)N(C)CC(=O)N[C@@H](Cc2c[nH]c3ccccc23)C(=O)N[C@@H](CO)C(=O)N[C@@H](Cc2c[nH]c3ccccc23)C(=O)N1C [Example 1003] (HELM PEPTIDE1{[O=C(C[*:3])[*:2]].F.[meA].N.P.H.L.[Sar].W.S.W.[CCCC[C@@H](C(=O)[*:2])N(C)[*:1]].[meF].R.C.G.[am]}$PEPTIDE1,PEPTIDE1,1:R3-15:R3$$$V2.0) | > 30.5 | > 74.3 | –
CCCC[C@H]1C(=O)N[C@@H](CCCNC(=N)N)C(=O)N[C@H](C(=O)NCC(N)=O)CSCC(=O)N[C@@H](Cc2ccccc2)C(=O)N(C)[C@@H](C)C(=O)N[C@@H](CC(N)=O)C(=O)N2CCC[C@H]2C(=O)N[C@@H](Cc2cnc[nH]2)C(=O)N[C@@H](CC(C)C)C(=O)N(C)CC(=O)N[C@@H](Cc2c[nH]c3ccccc23)C(=O)N[C@@H](CO)C(=O)N[C@@H](Cc2c[nH]c3ccccc23)C(=O)N[C@@H](CCc2ccccc2)C(=O)N1C [Example 1006] ({CH2CO}-F[NMeA]NPHL[Sar]WSW[hPhe][NMeNle]RCG-NH2; thioether N-14) | > 30.5 | > 74.3 | –
CCCC[C@H]1C(=O)N(C)[C@@H](CCCC)C(=O)N[C@@H](CCCNC(=N)N)C(=O)N[C@H](C(=O)NCC(N)=O)CSCC(=O)N[C@@H](Cc2ccccc2)C(=O)N(C)[C@@H](C)C(=O)N[C@@H](CC(N)=O)C(=O)N2CCC[C@H]2C(=O)N[C@@H](Cc2cnc[nH]2)C(=O)N[C@@H](CC(C)C)C(=O)N(C)CC(=O)N[C@@H](Cc2ccc(-c3ccccc3)cc2)C(=O)N[C@@H](CO)C(=O)N[C@@H](Cc2c[nH]c3ccccc23)C(=O)N1C [Example 1007] ({CH2CO}-F[NMeA]NPHL[Sar][Bip]SW[NMeNle][NMeNle]RCG-NH2; thioether N-14) | > 30.5 | > 74.3 | –
CCCC[C@H]1C(=O)N(C)[C@@H](CCCC)C(=O)N[C@@H](CCCNC(=N)N)C(=O)N[C@H](C(=O)NCC(N)=O)CSCC(=O)N[C@@H](Cc2ccccc2)C(=O)N(C)[C@@H](C)C(=O)N[C@@H](CC(N)=O)C(=O)N2CCC[C@H]2C(=O)N[C@@H](Cc2cnc[nH]2)C(=O)N[C@@H](CC(C)C)C(=O)N(C)CC(=O)N[C@@H](Cc2cscn2)C(=O)N[C@@H](CO)C(=O)N[C@@H](Cc2c[nH]c3ccccc23)C(=O)N1C [Example 1010] ({CH2CO}-F[NMeA]NPHL[Sar][Ala(4-thiazolyl)]SW[NMeNle][NMeNle]RCG-NH2; thioether N-14) | – | – | IC50 (Human PD-L1/PD-1; read-out: HTRF IC50 value): > 10000 nM; IC50 ([1]; cell line of CBA not given (LK35.2-hPD-L1 or 293T-hPD-L1), read-out: CBA IC50 value): > 10000 nM
CCCC[C@H]1C(=O)N[C@@H](CCCNC(=N)N)C(=O)N[C@H](C(=O)NCC(N)=O)CSCC(=O)N[C@@H](Cc2ccccc2)C(=O)N(C)[C@@H](C)C(=O)N[C@@H](CC(N)=O)C(=O)N2CCC[C@H]2C(=O)N[C@@H](Cc2cnc[nH]2)C(=O)N[C@@H](CC(C)C)C(=O)N(C)CC(=O)N[C@@H](Cc2c[nH]c3ccccc23)C(=O)N[C@@H](CO)C(=O)N[C@@H](Cc2c[nH]c3ccccc23)C(=O)N[C@@H](CNC(=O)C2CCC2)C(=O)N1C [Example 1011] ({CH2CO}-F[NMeA]NPHL[Sar]WSW[Dap](Cyclobutanecarbonyl)[NMeNle]RCG-NH2; thioether N-14) | > 30.5 | > 74.3 | –
CCCC[C@H]1C(=O)N[C@@H](CCCNC(=N)N)C(=O)N[C@H](C(=O)NCC(N)=O)CSCC(=O)N[C@@H](Cc2ccccc2)C(=O)N(C)[C@@H](C)C(=O)N[C@@H](CC(N)=O)C(=O)N2CCC[C@H]2C(=O)N[C@@H](Cc2cnc[nH]2)C(=O)N[C@@H](CC(C)C)C(=O)N(C)CC(=O)N[C@@H](Cc2c[nH]c3ccccc23)C(=O)N[C@@H](CO)C(=O)N[C@@H](Cc2c[nH]c3ccccc23)C(=O)N[C@@H](CNC(=O)C2CCCC2)C(=O)N1C [Example 1012] ({CH2CO}-F[NMeA]NPHL[Sar]WSW[Dap](Cyclopentanecarbonyl)[NMeNle]RCG-NH2; thioether N-14) | > 30.5 | > 74.3 | –
CCCC[C@H]1C(=O)N(C)[C@@H](CCCC)C(=O)N[C@@H](CCC(=O)O)C(=O)N[C@H](C(=O)NCC(N)=O)CSCC(=O)N[C@@H](Cc2ccc(O)cc2)C(=O)N(C)[C@@H](C)C(=O)N[C@@H](CC(=O)O)C(=O)N2CCC[C@H]2C(=O)N[C@@H](Cc2c[nH]cn2)C(=O)N[C@@H](CCCCN)C(=O)N2C[C@@H](c3ccccc3)C[C@H]2C(=O)N[C@@H](Cc2c[nH]c3ccccc23)C(=O)N[C@@H](CCCCN)C(=O)N[C@@H](Cc2c[nH]c3ccccc23)C(=O)N1C [Example 13006] ({CH2CO}-Y[NMeA]DPHK[Pro(cis-4-Ph)]WKW[NMeNle][NMeNle]ECG-NH2; thioether N-14) | – | – | IC50 ([1]; cell binding assay, cell line not given, value given instead of cluster, read-out: CBA IC50 value): 1.46 nM

The next lines start with results.

IC50 (Human PD-L1/PD-1; [2]) [nM] | IC50 [1, 4] [nM] | SMILES | also measured
> 30.5 | – | CCCC[C@H]1C(=O)N(C)CC(=O)N[C@@H](CC(=O)O)C(=O)N[C@@H](C(C)C)C(=O)N(C)[C@@H](Cc2ccccc2)C(=O)N[C@@H](Cc2ccc(O)cc2)C(=O)N(C)CC(=O)N[C@@H](Cc2c[nH]c3ccccc23)C(=O)N[C@@H](Cc2ccc(O)cc2)C(=O)N[C@@H](CC(C)C)C(=O)N[C@H](C(=O)NCC(N)=O)CSCC(=O)N[C@@H](Cc2ccccc2)C(=O)N(C)[C@@H](Cc2cccc3ccccc23)C(=O)N1C (single isomer, unassigned) [Example 3585-A] | IC50 [1, 3]: > 74.3 nM
> 30.5 | > 74.3 | CCCC[C@H]1C(=O)N(C)CC(=O)N[C@@H](CC(=O)O)C(=O)N[C@@H](C(C)C)C(=O)N(C)[C@@H](Cc2ccccc2)C(=O)N[C@@H](Cc2ccc(O)cc2)C(=O)N(C)CC(=O)N[C@@H](C)C(=O)N[C@@H](Cc2ccc(O)cc2)C(=O)N[C@@H](CC(C)C)C(=O)N[C@@H](C(=O)NCC(N)=O)CSCC(=O)N[C@@H](Cc2ccccc2)C(=O)N(C)[C@@H](Cc2ccccc2)C(=O)N1C [Example 1001] (HELM PEPTIDE1{[O=C(C[*:3])[*:2]].F.[meF].[CCCC[C@@H](C(=O)[*:2])N(C)[*:1]].[Sar].D.V.[meF].Y.[Sar].A.Y.L.[dC].G.[am]}$PEPTIDE1,PEPTIDE1,1:R3-14:R3$$$V2.0) | –
> 30.5 | > 74.3 | CCCC[C@H]1C(=O)N(C)[C@@H](CCCC)C(=O)N[C@@H](CCCNC(=N)N)C(=O)N[C@H](C(=O)NCC(N)=O)CSCC(=O)N[C@@H](Cc2ccccc2)C(=O)N(C)[C@@H](C)C(=O)N[C@@H](CC(N)=O)C(=O)N2CCC[C@H]2C(=O)N[C@@H](Cc2c[nH]cn2)C(=O)N[C@@H](CC(C)C)C(=O)N(C)CC(=O)N[C@@H](Cc2c[nH]c3ccccc23)C(=O)N[C@@H](CO)C(=O)N[C@@H](Cc2c[nH]cn2)C(=O)N1C [Example 1004] ({CH2CO}-F[NMeA]NPHL[Sar]WSH[NMeNle][NMeNle]RCG-NH2; thioether N-14) | –
> 30.5 | > 74.3 | CCCC[C@H]1C(=O)N[C@@H](CCCNC(=N)N)C(=O)N[C@H](C(=O)NCC(N)=O)CSCC(=O)N[C@@H](Cc2ccccc2)C(=O)N(C)[C@@H](C)C(=O)N[C@@H](CC(N)=O)C(=O)N2CCC[C@H]2C(=O)N[C@@H](Cc2cnc[nH]2)C(=O)N[C@@H](CC(C)C)C(=O)N(C)CC(=O)N[C@@H](Cc2c[nH]c3ccccc23)C(=O)N[C@@H](CO)C(=O)N[C@@H](Cc2c[nH]c3ccccc23)C(=O)N2CCC[C@H]2C(=O)N1C [Example 1005] (HELM PEPTIDE1{[O=C(C[*:3])[*:2]].F.[meA].N.P.H.L.[Sar].W.S.W.P.[CCCC[C@@H](C(=O)[*:2])N(C)[*:1]].R.C.G.[am]}$PEPTIDE1,PEPTIDE1,1:R3-15:R3$$$V2.0) | –
